Reference: ChEMBL document CHEMBL2016526, “3-(N-arylsulfamoyl)benzamides, inhibitors of human sirtuin type 2 (SIRT2)” (Bioorg Med Chem Lett, 2012)
Blank lines part the entries; values can stand above or below the compound they belong to. Calls of active or inactive are those of the source. The calls are words filed in the database; no cut-off is given here.

Legend:
[1] = target: T1, NAD-dependent protein deacetylase sirtuin-2 (Homo sapiens) (UniProt Q8IXJ6); assay: Inhibition of recombinant SIRT2 assessed as lysine deacetylation at 10 uM relative to control; parameters: scale not given: the % may be the effect or the level left
T1 sequence (whole entry): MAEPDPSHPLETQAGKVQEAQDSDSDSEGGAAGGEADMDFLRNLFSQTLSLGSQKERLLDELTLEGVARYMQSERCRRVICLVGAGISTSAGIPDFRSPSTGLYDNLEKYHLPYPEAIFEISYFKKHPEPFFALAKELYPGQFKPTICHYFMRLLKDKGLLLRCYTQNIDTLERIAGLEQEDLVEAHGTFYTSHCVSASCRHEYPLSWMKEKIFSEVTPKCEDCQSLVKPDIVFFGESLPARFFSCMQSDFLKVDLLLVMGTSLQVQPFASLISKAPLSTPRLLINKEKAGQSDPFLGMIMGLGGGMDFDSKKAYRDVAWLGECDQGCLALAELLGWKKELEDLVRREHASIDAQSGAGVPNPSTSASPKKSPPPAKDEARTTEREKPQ

[2] = target: T2, NAD-dependent protein deacetylase sirtuin-1 (Homo sapiens) (UniProt Q96EB6); assay: Inhibition of recombinant SIRT1 assessed as lysine deacetylation at 10 uM
T2 sequence (whole entry): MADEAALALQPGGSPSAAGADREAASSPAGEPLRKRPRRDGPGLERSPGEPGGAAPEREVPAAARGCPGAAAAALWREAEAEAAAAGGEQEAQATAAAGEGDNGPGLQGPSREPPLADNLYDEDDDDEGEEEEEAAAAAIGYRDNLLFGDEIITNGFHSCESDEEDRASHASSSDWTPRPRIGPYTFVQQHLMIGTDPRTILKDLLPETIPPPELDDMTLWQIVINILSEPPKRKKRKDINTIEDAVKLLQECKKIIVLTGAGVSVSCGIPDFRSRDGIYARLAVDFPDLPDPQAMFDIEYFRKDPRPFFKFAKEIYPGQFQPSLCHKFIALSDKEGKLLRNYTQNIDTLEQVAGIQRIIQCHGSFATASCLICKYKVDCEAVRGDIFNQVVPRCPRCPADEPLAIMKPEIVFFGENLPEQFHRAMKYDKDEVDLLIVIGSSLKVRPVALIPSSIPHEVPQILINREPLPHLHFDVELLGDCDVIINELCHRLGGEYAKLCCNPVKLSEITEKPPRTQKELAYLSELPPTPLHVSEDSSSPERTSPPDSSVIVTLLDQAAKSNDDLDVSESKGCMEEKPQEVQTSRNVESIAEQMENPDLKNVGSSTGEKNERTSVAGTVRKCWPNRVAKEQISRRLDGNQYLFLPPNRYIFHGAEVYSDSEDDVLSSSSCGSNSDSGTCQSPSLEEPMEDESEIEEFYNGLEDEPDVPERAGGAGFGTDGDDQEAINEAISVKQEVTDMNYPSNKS

[3] = target: T1, NAD-dependent protein deacetylase sirtuin-2 (Homo sapiens); assay: Inhibition of recombinant SIRT2 assessed as lysine deacetylation at 1 to 50 uM
[4] = target: T3, NAD-dependent protein deacetylase sirtuin-3, mitochondrial (Homo sapiens) (UniProt Q9NTG7); assay: Inhibition of recombinant SIRT3 assessed as lysine deacetylation at 10 uM relative to control
T3 sequence (whole entry): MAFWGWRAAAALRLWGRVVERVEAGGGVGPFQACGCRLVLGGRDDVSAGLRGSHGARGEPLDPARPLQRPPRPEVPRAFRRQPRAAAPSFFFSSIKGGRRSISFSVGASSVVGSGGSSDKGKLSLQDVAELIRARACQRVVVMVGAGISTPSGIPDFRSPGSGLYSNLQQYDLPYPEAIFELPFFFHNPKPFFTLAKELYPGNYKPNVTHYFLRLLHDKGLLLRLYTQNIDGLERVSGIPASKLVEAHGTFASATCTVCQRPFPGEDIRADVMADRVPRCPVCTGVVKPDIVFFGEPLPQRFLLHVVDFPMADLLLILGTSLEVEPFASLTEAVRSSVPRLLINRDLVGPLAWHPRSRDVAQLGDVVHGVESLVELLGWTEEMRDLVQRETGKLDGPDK

[5] = target: T1, NAD-dependent protein deacetylase sirtuin-2 (Homo sapiens); assay: Inhibition of recombinant SIRT2 assessed as lysine deacetylation at 25 uM relative to control; parameters: scale not given: the % may be the effect or the level left
[6] = target: T1, NAD-dependent protein deacetylase sirtuin-2 (Homo sapiens); assay: Inhibition of recombinant SIRT2 assessed as lysine deacetylation at 50 uM relative to control; parameters: scale not given: the % may be the effect or the level left
[7] = target: T2, NAD-dependent protein deacetylase sirtuin-1 (Homo sapiens); assay: Inhibition of recombinant SIRT1 assessed as lysine deacetylation up to 50 uM
[8] = target: T3, NAD-dependent protein deacetylase sirtuin-3, mitochondrial (Homo sapiens); assay: Inhibition of recombinant SIRT3 assessed as lysine deacetylation up to 50 uM
[9] = target: T1, NAD-dependent protein deacetylase sirtuin-2 (Homo sapiens); assay: Inhibition of recombinant SIRT2 assessed as lysine deacetylation at 6.25 to 25 uM

Compound: C=CCN(c1ccc(Br)cc1)S(=O)(=O)c1cccc(C(=O)Nc2ccc(Br)cc2)c1
Activity [5]: 92%

Compound: CN(C(=O)c1cccc(S(=O)(=O)N(C)c2ccc(Br)cc2)c1)c1ccc(C(F)(F)F)cc1
Activity [6]: 76%

Compound: CCN(c1ccc(Br)cc1)S(=O)(=O)c1cccc(C(=O)Nc2ccc(Br)cc2)c1
Activity [5]: 82%

Compound: O=C(Nc1cccc([N+](=O)[O-])c1)c1cccc(S(=O)(=O)N2CCCCCC2)c1
inhibition [7]: Active

Compound: CN(c1ccc(Br)cc1)S(=O)(=O)c1cccc(C(=O)Nc2ccc(Br)cc2)c1
inhibition [8]: inactive | Activity [5]: 56% | inhibition [7]: inactive | inhibition [9]: Active

Compound: O=C(Nc1ccc(Br)cc1)c1cccc(S(=O)(=O)Nc2ccc(Br)cc2)c1
Activity [5]: 85%

Compound: O=C(Nc1ccc(Br)cc1)c1cccc(S(=O)(=O)N(Cc2ccccc2)c2ccc(Br)cc2)c1
Activity [5]: 80%

Now from value to compound:

Activity [1]: 72%
Compound: CN(C(=O)c1cccc(S(=O)(=O)N(C)c2ccc(Cl)cc2)c1)c1ccc(Br)cc1

Activity [1]: 54% | inhibition [2]: inactive | inhibition [3]: Active | inhibition [4]: inactive
Compound: CN(C(=O)c1cccc(S(=O)(=O)N(C)c2ccc(Br)cc2)c1)c1ccc(Cl)cc1

inhibition [2]: inactive | inhibition [3]: Active | inhibition [4]: 5%
Compound: CN(C(=O)c1cccc(S(=O)(=O)N(C)c2ccc(Cl)cc2)c1)c1ccc(Cl)cc1

Activity [6]: 57%
Compound: CN(C(=O)c1cccc(S(=O)(=O)N(C)c2ccc(Br)cc2)c1)c1ccc(F)cc1

Activity [1]: 55% | inhibition [2]: inactive | inhibition [4]: inactive
Compound: CN(C(=O)c1cccc(S(=O)(=O)N(C)c2ccc(C(F)(F)F)cc2)c1)c1ccc(Br)cc1

inhibition [8]: inactive | inhibition [3]: Active | inhibition [7]: inactive | inhibition [9]: Active
Compound: CN(C(=O)c1cccc(S(=O)(=O)N(C)c2ccc(Br)cc2)c1)c1ccc(Br)cc1
